We go through 5 compounds from PMC5958115, “A novel small molecule chaperone of rod opsin and its potential therapy for retinal degeneration” (Nature Communications, 2018).

One experiment deals with mouse P23H-opsin mutant (Mus musculus, UniProt P15409, P23H). Put plainly: β-Gal fragment complementation assay: rescue of P23H opsin transport from ER to plasma membrane, U2OS(PLC-EA/P23H-PK) cells. In kind it is cell-based. To be noted: for β-Gal fragment complementation assay Activity score (%) Max (Exp) / β-Gal fragment complementation assay Activity score (%) Max (fit) / Efficacy: 24 h, 5 µM 9-cis-retinal = 100%; for β-Gal fragment complementation assay Activity score (%) Max (Exp): experimental maximum; for β-Gal fragment complementation assay Activity score (%) Max (fit) / Efficacy: from curve fitting; for EC50: 24 h preincubation, activity standardized to 5 µM 9-cis-retinal as 100%, Hill fit, read-out: β-Gal fragment complementation assay Activity score (%) EC50. From the text:
U2OS(PLC-EA/P23H-PK) cells. A U2OS stable cell line was generated by DiscoveRx, Inc. (Fremont, CA, USA) for the β-Gal fragment complementation assay used in the small-molecule HTS for rescue of P23H-opsin transport. U2OS cells that continually express P23H-PK and PLC-EA fusion proteins were generated. Briefly, this small subunit of β-Gal (PK fragment) was fused to the C-terminal of the mouse P23H-opsin mutant, while the large EA fragment, a subunit of β-Gal, was fused with PLC, a plasma membrane-anchored peptide. Both constructs were subcloned by DicoveRx, Inc. and transferred into U2OS cells by viral infections. Positive clones were selected under treatment with hygromycin and geneticin.
Briefly, U2OS(PLC-EA /P23H-PK) cells were suspended in assay medium at 3 × 10^5 cells mL^−1. The cell suspension was dispensed into 384-well plates (Greiner Bio-one, Monroe, NC, USA) at 20 µL per well, with a Multidrop dispenser (Thermo Scientific, Waltham, MA, USA). Plates with cells then were centrifuged at 200×g for 15 s before incubation at 37 °C with 5% CO2. Plates were removed 24 h later for treatment with tested compounds. A total of 248 plates containing 79,080 compounds from three small-molecule libraries were paired with an equal number of assay plates with cultured cells. Owing to a limited capacity, these plates were assayed in seven batches. An average of 56.3 nL of 10 mM compound in DMSO was dispensed into each well from column 3 to 22 of paired assay plates using a 50 nL 384-pintool system, such that the final concentration of each compound was 22.52 µM on average. […] Each assay plate was shaken for 5 s before further incubation at 37 °C with 5% CO2. After 24 h, assay plates were removed, and each well was incubated with 25 µL of 1× Gal-Screen assay buffer (1:24 substrate-buffer ratio). Assay plates were incubated in the dark for 60–90 min, and luminescence was read from each assay plate with an Envision microplate reader (PerkinElmer) during a 0.1 s per well integration time. The mean and s.d. of readouts in column 2 of each plate were calculated as Mean0% and SD0%, whereas the average and s.d. of readouts in column 23 were calculated as Mean100% and SD100%. Eq. 1: Activity scores (%) = (RLUcp − Mean0%)/(Mean100% − Mean0%) × 100%, where RLUcp is the relative luminescence unit derived for cells treated with a compound. Eq. 2: Z′-factor = 1–3 × (SD0% + SD100%)/(Mean100% − Mean0%)[32]; Eq. 3: signal-to-background (S/B) ratio = Mean100%/Mean0%. Activities of all tested compounds were registered with their compound ID by GeneData Screener (Genedata, Basel, Switzerland) and Pipeline Pilot software (Accelrys, San Diego, CA, USA). Hits, cherry-picked from a separate stock dose-dependent activity test, were selected with an activity score cutoff at 20%. Activity of each hit was tested again with the β-Gal fragment complementation assay in a 10-dose series with each dose tested in triplicate. The 10 doses tested were 80, 40, 20, 10, 5, 2.5, 1.25, 0.625, 0.313, and 0.156 µM. Dose-dependent curves of each hit compound were fitted with GeneData and Origin software.
Detailed synthetic steps are described in Supplementary Note and Supplementary Fig. 9. […] YC-002-YC-021 were purchased from commercial vendors including Enamine LLC (Monmouth Jct., NJ, USA), Matrix Scientific (Columbia, SC, USA) and Tokyo Chemical Industry Co., Ltd. (Portland, OR, USA). […] Activities of YC compounds were tested with the β-Gal fragment complementation assay, as described in a prior section. All YC compounds were tested at 10 doses, each in triplicate: 80, 40, 20, 10, 5, 2.5, 1.25, 0.625, 0.313, and 0.156 µM.

The next experiment concerns the target T1, mouse P23H opsin (Mus musculus, UniProt P15409, P23H).
T1 construct: expressed in transfected cells
Nature of the experiment: High-content imaging analysis of P23H opsin immunostaining in NIH3T3-(P23H opsin/GFP) cells. In kind it is cell-based. The following applies: ratio of P23H rod opsin fluorescence on plasma membrane to whole cell; for EC50: read-out: Immunostaining HCS MEM-Total ratio EC50. How it is done:
To characterize the effect of active compounds on the localization of P23H-mutant opsin in mammalian cells, an image-based assay was used with cells immunostained for WT or P23H-mutant opsin protein[18]. Briefly, NIH3T3-(P23H opsin/GFP) or NIH3T3-(WT-opsin/GFP) cells were seeded at 5000 cells per well in a 384-well cell-carrier plate (PerkinElmer) and incubated at 37 °C with 5% CO2 for 2 h. Cells were treated with compounds as described for the β-Gal fragment complementation assay and incubated in assay medium for 24 h. The assay medium then was aspirated, and cells were fixed with 4% paraformaldehyde at 20 µL per well for 20 min at RT. Cells were immunostained in one of two ways: cell membranes were either permeabilized with 0.1% Triton X-100 for 15 min or left intact and then were incubated with 10% goat serum (Life Technologies). To detect opsin on the cell plasma membrane only, intact cells were immunostained with 20 µL per well of 20 µg mL^−1 B6-30 anti-rhodopsin antibody that recognizes the N-terminal epitope on the extracellular side of rhodopsin. To detect total opsin, cells were permeabilized with Triton X-100 and immunostained with 50 µg mL^−1 1D4 anti-rhodopsin antibody specific for the C-terminal epitope on the intracellular side of rhodopsin. Opsin immunostaining was visualized by incubating cells with 5 µg mL^−1 Cy3-conjugated goat anti-mouse IgG antibody. Three washes with phosphate-buffered saline (PBS: 10 mM Na2HPO4, 1.8 mM KH2PO4, pH 7.4, 137 mM NaCl, and 2.7 mM KCl) were performed between each step of incubation with antibody. In the last wash with PBS, DAPI was added to each well at 300 nM. Fluorescence images were obtained with the Operetta High Content Imaging System (PerkinElmer) using a ×20 long objective. Five fields were taken of each well for cell images using three channels for fluorescence: GFP (100 ms), Cy3 (300 ms), and DAPI (50 ms). Images were analyzed with Acapella software from the Columbus data storage and analysis system (PerkinElmer)[18]. For cells immunostained with opsin on the non-permeabilized cell membrane only, an average of total fluorescence intensity of Cy3 per cell was used to quantify opsin in each well of the 384-well plate. For cells immunostained with opsin in permeabilized whole cells, an average ratio of Cy3 intensity on the cell plasma membrane (PM) to that of the entire cell (opsin ratio PM-to-total) was calculated for each well of a 384-well plate to quantify opsin transport to the plasma membrane. The plasma membrane was defined within ± 5% of the cell border.

The next experiment concerns the target T2, P23H opsin (Mus musculus, UniProt P15409, P23H).
T2 construct: expressed in transfected cells
Nature of the experiment: Immunoblot of P23H opsin glycosylation in NIH3T3 cell lysates. The following applies: P23H opsin. The arrangement: key to Improved glycosylation: n = no; y = yes. In kind it is cell-based. How it is done:
NIH3T3-(P23H opsin/GFP) or NIH3T3-(WT-opsin/GFP) cells were seeded in a 48-well plate (Corning Costar) at 3.2 × 10^5 cells per well and incubated at 37 °C with 5% CO2 for 2 h. One hundred-µL of assay medium containing a compound at 5× its final concentration was added to each well. The plate was gently shaken for 5 s before further incubation at 37 °C with 5% CO2 for 24 h. The assay medium then was aspirated, and cells were lysed with 100 µL per well PBS containing 0.1% Triton X-100 and complete protease inhibitor cocktail (Roche, Basel, Switzerland) followed by sonication for 3 s. Protein concentrations were determined with the Bradford assay. For PNGaseF catalyzed deglycosylation, 3 µL of PNGaseF (1500 U, NEB) was added to the cell lysate and the mixture was incubated at room temperature for 1 h before immunoblotting. For NIH3T3-(P23H opsin/GFP) cells, 15 µg of total protein were loaded per well onto an SDS-polyacrylamide gel; whereas for NIH3T3-(WT-opsin/GFP) cells, 5 µg of total protein was loaded per well. Opsin protein was immunostained with 0.2 μg mL^−1 horseradish peroxidase-conjugated 1D4 anti-rhodopsin antibody. Band intensities were measured with ImageJ software (http://imagej.nih.gov/ij/; National the Institutes of Health, Bethesda, MD, USA) and normalized to a glyceraldehyde 3-phosphate dehydrogenase (GAPDH) loading control. Full scans of immunoblotted membranes are shown in Supplementary Fig. 8.
A general note: A western blot detects proteins with antibodies after separation by electrophoresis.

The target in experiment [1] is bovine isorhodopsin (rod opsin regenerated with 9-cis-retinal), photoactivated (bovine) (UniProt P02699).
bovine isorhodopsin (rod opsin regenerated with 9-cis-retinal), photoactivated (bovine), sequence (P02699 whole entry): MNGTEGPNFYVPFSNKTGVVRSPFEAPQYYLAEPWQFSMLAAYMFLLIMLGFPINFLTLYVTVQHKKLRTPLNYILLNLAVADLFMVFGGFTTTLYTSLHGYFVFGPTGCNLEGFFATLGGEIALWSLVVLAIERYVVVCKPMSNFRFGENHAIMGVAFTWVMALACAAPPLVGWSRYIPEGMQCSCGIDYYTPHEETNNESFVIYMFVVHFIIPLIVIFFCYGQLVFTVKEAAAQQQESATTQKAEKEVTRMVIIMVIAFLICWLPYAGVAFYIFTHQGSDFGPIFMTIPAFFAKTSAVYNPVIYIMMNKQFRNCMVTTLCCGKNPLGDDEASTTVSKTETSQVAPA
For experiment [2], the target named is bovine rod opsin in ROS disc membranes (bovine) (UniProt P02699).
bovine rod opsin in ROS disc membranes (bovine), sequence (P02699 whole entry): as above

Gt, sequence (P04695 whole entry, looked up): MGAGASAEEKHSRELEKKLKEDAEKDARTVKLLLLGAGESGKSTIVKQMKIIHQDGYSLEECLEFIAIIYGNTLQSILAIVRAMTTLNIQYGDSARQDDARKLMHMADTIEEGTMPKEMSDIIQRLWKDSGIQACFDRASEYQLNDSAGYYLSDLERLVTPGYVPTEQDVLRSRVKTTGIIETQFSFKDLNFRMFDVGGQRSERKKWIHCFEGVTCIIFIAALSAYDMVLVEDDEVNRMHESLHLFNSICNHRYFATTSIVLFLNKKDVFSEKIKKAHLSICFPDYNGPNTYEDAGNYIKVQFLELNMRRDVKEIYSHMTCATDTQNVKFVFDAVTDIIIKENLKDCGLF

Consider `O=C(NCCCOc1cccc2cccnc12)c1cc(-c2ccccc2)on1` [Compound F5875-0200], for which, on mouse P23H-opsin mutant, the “β-Gal fragment complementation assay Activity score (%) Max (Exp)” value is reported as 31.8%, the “β-Gal fragment complementation assay Activity score (%) Max (fit) / Efficacy” value amounted to 51.6% and the EC50 worked out at 25 µM. Further, on mouse P23H opsin, the “Immunostaining HCS MEM-Total ratio Max (fit)” value was 0.041 and the EC50 is 6.2 µM. Besides, on P23H opsin, the Improved glycosylation entry is recorded as “n”.

On to `O=C(NCCCn1cccc1)c1cc(-c2ccccc2)on1` [Compound F5937-0207], for which, at mouse P23H-opsin mutant, the “β-Gal fragment complementation assay Activity score (%) Max (Exp)” value is 32.8%, the “β-Gal fragment complementation assay Activity score (%) Max (fit) / Efficacy” value amounted to 37.3% and the EC50 is 8.38 µM. Besides, at mouse P23H opsin, the “Immunostaining HCS MEM-Total ratio Max (fit)” value was determined as 0.021 and the EC50 worked out at 1.33 µM. Also, the Improved glycosylation result at P23H opsin is “n”.

`O=C(NCC#CCN1CCCC1)c1cc(-c2ccccc2)on1` [Compound F6244-1415]: on mouse P23H-opsin mutant, the “β-Gal fragment complementation assay Activity score (%) Max (Exp)” value was found to be 24.8%, the “β-Gal fragment complementation assay Activity score (%) Max (fit) / Efficacy” value is given as 25.2% and the EC50 worked out at 8.61 µM. At mouse P23H opsin, the “Immunostaining HCS MEM-Total ratio Max (fit)” value was 0.063 and the EC50 came out at 4.2 µM. The Improved glycosylation result on P23H opsin is given as “n”.

In the case of `Cc1cc(OCC(=O)Nc2cc(N3CCOCC3)ncn2)cc(C)c1Cl` [Compound F6257-1860], on mouse P23H-opsin mutant, the “β-Gal fragment complementation assay Activity score (%) Max (Exp)” value is 211%, the “β-Gal fragment complementation assay Activity score (%) Max (fit) / Efficacy” value is reported as 234% and the EC50 turned out to be 10.7 µM. Also, on mouse P23H opsin, the “Immunostaining HCS MEM-Total ratio Max (fit)” value is on record as 0.022 and the EC50 amounted to 1.07 µM. For the same compound, the Improved glycosylation entry at P23H opsin was “n”.

For “Gt (from UniProt P04695 1-350) (complex)”, in experiment [1], the initial rate of Gt activation upon illumination (intrinsic Gtα fluorescence after addition of 300 µM GTPγS), isorhodopsin regenerated with 40 µM 9-cis-retinal alone is -4.6; the initial rate of Gt activation upon illumination (intrinsic Gtα fluorescence after addition of 300 µM GTPγS), isorhodopsin regenerated with 40 µM 9-cis-retinal and 40 µM YC-001 together was -4.9. In addition, in experiment [2], the initial rate of Gt activation (intrinsic Gtα fluorescence after addition of 300 µM GTPγS), opsin membranes treated with 40 µM YC-001 is -6.1; the initial rate of Gt activation (intrinsic Gtα fluorescence after addition of 300 µM GTPγS), opsin membranes treated with 40 µM YC-014 is -5.7; the initial rate of Gt activation (intrinsic Gtα fluorescence after addition of 300 µM GTPγS), opsin membranes treated with DMSO was -5.3.
